Consider three compounds from US8377984B2, “Substituted gamma lactams as therapeutic agents” (Allergan, Inc., priority 2008, dated 2013).

Each structure is given as a SMILES string.

One data set deals with normotensive dogs. The data set is described as follows: Ocular surface hyperemia (OSH) in normotensive dogs. The class given is in vivo. As to conditions: 0.003%. How it is done:
In Vivo Data (S)-5-(3-(1-(4-hexylphenyl)-5-oxopyrrolidin-2-yl)propyl)thiophene-2-carboxylic acid 2-hydroxyethyl ester (3) was tested in normotensive dogs at 0.003%, dosing once daily for 5 days. The maximum intraocular pressure (IOP) decrease from baseline was 5.9 mmHg (36%) at 54 h; the maximum ocular surface hyperemia (OSH) score was 1.1 at 74 h. This compound was also tested in laser-induced hypertensive monkeys, using one single day dose. At 0.003%, the maximum IOP decrease from baseline was 17 mmHg (44%) at 6 h.
(S)-5-(3-(1-(4-hexylphenyl)-5-oxopyrrolidin-2-yl)propyl)thiophene-2-carboxylic acid (9) was tested in normotensive dogs at 0.003%, dosing once daily for 5 days. The maximum intraocular pressure (IOP) decrease from baseline was 4.7 mmHg (29%) at 6 h; the maximum ocular surface hyperemia (OSH) score was 1.9 at 76 h. This compound was also tested in laser-induced hypertensive monkeys, using one single day dose. At 0.003%, the maximum IOP decrease from baseline was 9 mmHg (23%) at 6 h.
(S)-5-(3-(1-(4-hexylphenyl)-5-oxopyrrolidin-2-yl)propyl)thiophene-2-carboxylic acid isopropyl ester was tested in normotensive dogs at 0.003%, dosing once daily for 4 days. The maximum intraocular pressure (IOP) decrease from baseline was 3.9 mmHg (24%) at 30 h; the maximum ocular surface hyperemia (OSH) score was 0.7 at 28 h. This compound was also tested in laser-induced hypertensive monkeys, using one single day dose. At 0.003%, the maximum IOP decrease from baseline was 12 mmHg (28%) at 6 h.

Data set [1] has as its target T1, EP2 (Homo sapiens, UniProt P43116). The data set is described as follows: EP2 flipr. It counts as cell-based.
Data set [2] concerns the target T1, EP2. The data set is described as follows: EP2 cAMP. The class given is cell-based.
The target in data set [3] is T1, EP2. The data set is described as follows: EP2 binding (Ki).
In data set [4] the target is T2, EP4 (Homo sapiens, UniProt P35408). The data set is described as follows: EP4 flipr. It counts as cell-based.
T2 sequence (P35408 whole entry): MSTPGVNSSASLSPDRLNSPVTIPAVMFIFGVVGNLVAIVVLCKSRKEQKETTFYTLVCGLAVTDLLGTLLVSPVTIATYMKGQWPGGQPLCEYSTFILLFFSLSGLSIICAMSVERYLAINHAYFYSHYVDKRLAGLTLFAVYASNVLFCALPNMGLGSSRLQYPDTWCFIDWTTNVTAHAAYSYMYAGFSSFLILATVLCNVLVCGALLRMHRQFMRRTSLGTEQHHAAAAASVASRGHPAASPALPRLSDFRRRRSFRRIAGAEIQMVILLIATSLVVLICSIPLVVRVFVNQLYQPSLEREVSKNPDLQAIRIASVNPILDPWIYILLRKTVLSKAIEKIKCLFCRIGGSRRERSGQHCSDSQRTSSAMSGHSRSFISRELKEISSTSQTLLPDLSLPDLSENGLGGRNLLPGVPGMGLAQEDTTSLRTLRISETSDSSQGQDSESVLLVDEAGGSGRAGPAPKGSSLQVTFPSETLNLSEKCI
Data set [5] has as its target T2, EP4. The data set is described as follows: EP4 binding (Ki).
Another data set deals with T3, hEP3A (Homo sapiens, UniProt P43115).
T3 sequence (P43115 1-390): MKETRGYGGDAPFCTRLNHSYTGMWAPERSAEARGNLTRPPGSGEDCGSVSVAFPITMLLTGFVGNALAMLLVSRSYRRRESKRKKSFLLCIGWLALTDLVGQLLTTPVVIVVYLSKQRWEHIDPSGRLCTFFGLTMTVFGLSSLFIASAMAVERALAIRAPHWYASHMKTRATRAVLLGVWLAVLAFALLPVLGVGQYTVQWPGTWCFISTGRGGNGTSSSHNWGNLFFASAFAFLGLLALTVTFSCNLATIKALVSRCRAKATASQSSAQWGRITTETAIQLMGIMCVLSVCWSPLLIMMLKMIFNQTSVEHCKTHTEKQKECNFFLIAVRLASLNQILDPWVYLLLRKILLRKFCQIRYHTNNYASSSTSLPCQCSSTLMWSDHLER
The data set is described as follows: Other receptors, hEP3A. The class given is cell-based.

The next data set concerns the target T4, hDP (Homo sapiens, UniProt Q13258).
T4 sequence (Q13258 1-359): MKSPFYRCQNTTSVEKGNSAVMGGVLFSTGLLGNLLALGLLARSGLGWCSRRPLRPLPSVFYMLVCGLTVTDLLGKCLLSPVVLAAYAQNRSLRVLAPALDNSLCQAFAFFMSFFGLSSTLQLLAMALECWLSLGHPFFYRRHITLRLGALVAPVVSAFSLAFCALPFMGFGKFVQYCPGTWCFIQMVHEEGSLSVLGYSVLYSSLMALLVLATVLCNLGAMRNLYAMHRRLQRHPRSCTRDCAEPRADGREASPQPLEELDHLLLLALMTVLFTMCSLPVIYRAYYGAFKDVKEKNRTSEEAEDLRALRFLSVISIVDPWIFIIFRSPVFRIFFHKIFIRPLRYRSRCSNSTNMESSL
The data set is described as follows: Other receptors, hDP. It counts as cell-based.

T1 sequence (P43116 whole entry): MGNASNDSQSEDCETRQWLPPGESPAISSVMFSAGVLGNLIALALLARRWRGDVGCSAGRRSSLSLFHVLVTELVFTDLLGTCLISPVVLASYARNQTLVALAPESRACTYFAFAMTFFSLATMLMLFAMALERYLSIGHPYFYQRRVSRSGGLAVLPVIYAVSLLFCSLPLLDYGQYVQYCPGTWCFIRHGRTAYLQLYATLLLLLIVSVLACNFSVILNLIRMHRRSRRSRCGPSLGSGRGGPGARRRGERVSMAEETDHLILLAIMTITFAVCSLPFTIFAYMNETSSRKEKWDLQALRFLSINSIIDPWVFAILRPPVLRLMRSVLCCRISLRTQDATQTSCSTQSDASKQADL

With `CCCCCCc1ccc(N2C(=O)CC[C@@H]2CCCc2ccc(C(=O)O)s2)cc1` [Compound 9, (S)-5-(3-(1-(4-hexylphenyl)-5-oxopyrrolidin-2-yl)propyl)thiophene-2-carboxylic acid], the “maximum ocular surface hyperemia (OSH) score” value in the data set on normotensive dogs (once daily for 5 days, at 76 h) is 1.9. For the same compound, the EC50 on EP2 [1] was 5 nM; at EP2 [2], 0.5 nM; on EP4 [4], 11300 nM; at hEP3A it was 1550 nM; at hDP, 389 nM. The Ki stood at 3 nM at EP2 [3] and 2610 nM at EP4 [5].
As for `CCCCCCc1ccc(N2C(=O)CC[C@@H]2CCCc2ccc(C(=O)OCCO)s2)cc1` [Compound 3, (S)-5-(3-(1-(4-hexylphenyl)-5-oxopyrrolidin-2-yl)propyl)thiophene-2-carboxylic acid 2-hydroxyethyl ester], in the data set on normotensive dogs (once daily for 5 days, at 74 h), the “maximum ocular surface hyperemia (OSH) score” value is recorded as 1.1.
Turning to `CCCCCCc1ccc(N2C(=O)CC[C@@H]2CCCc2ccc(C(=O)OC(C)C)s2)cc1` [(S)-5-(3-(1-(4-hexylphenyl)-5-oxopyrrolidin-2-yl)propyl)thiophene-2-carboxylic acid isopropyl ester], the “maximum ocular surface hyperemia (OSH) score” value with normotensive dogs (once daily for 4 days, at 28 h) was 0.7.

As usually defined, the EC50 is the concentration needed to bring the measured effect to its halfway point. A higher EC50 goes with a need for much substance. As a reminder, the Ki is the equilibrium dissociation constant of an inhibitor or competing ligand from its target. The low end stands for higher affinity, the high end for lower affinity.
